Measurements taken from patent EP0554004A2, “Cephem compounds and antibacterial agents” (KATAYAMA SEIYAKUSYO CO. Ltd., priority 1992, dated 1993).
Converted amounts (≈) assume the structure as drawn.

Key:
E. coli NIHJ JC-2 = assay: MIC against standard strains (Test Example 3); assay type: cell-based; settings: Escherichia coli, NIHJJC2; E. coli NIHJ JC-2 (Test Example 3); read-out: MIC
In short: (§1)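 Strains are grown overnight at 37°C in Mueller-Hinton broth and adjusted to 1 x 10^6 CFU/ml. Suspensions are then inoculated onto Mueller-Hinton agar plates each carrying one test agent, incubated overnight at 37°C, and scored for growth to give the MIC.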

S. aureus 167 = assay: MIC against standard strains (Test Example 3); assay type: cell-based; settings: Staphylococcus aureus; S. aureus 167 (MRSA) (Test Example 3); read-out: MIC
In short: as §1

S. marcescens IAM1184 = assay: MIC against standard strains (Test Example 3); assay type: cell-based; settings: Serratia marcescens; S. marcescens IAM1184 (Test Example 3); read-out: MIC
In short: as §1

S. aureus Smith = assay: MIC against standard strains (Test Example 3); assay type: cell-based; settings: Staphylococcus aureus; S. aureus Smith (Test Example 3); read-out: MIC
In short: as §1

M. luteus ATCC 9341 = assay: MIC against standard strains (Test Example 3); assay type: cell-based; settings: Micrococcus luteus, ATCC9341; M. luteus ATCC 9341 (Test Example 3); read-out: MIC
In short: as §1

C. freundii ATCC8090 = assay: MIC against standard strains (Test Example 3); assay type: cell-based; settings: Citrobacter freundii; C. freundii ATCC8090 (Test Example 3); read-out: MIC
In short: as §1

E. coli CSH2 (RK1) = assay: MIC against standard strains (Test Example 3); assay type: cell-based; settings: Escherichia coli
In short: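 Read-out is the minimum concentration preventing visible bacterial growth on drug-containing Mueller-Hinton agar after overnight incubation at 37°C. Inocula were bacterial suspensions at 1 x 10^6 CFU/ml prepared from overnight Mueller-Hinton broth cultures at 37°C.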

A. calcoaceticos T59 = assay: MIC against standard strains (Test Example 3); assay type: cell-based; settings: A. calcoaceticos T59 (Test Example 3); read-out: MIC
In short: as §1

S. aureus 209p JC-1 = assay: MIC against standard strains (Test Example 3); assay type: cell-based; settings: Staphylococcus aureus; S. aureus 209p JC-1 (Test Example 3); read-out: MIC
In short: as §1

clinically isolated MRSA = assay: Antibacterial potency against clinically isolated MRSA (Test Example 2); assay type: cell-based, methicillin-resistant Staphylococcus aureus; settings: Staphylococcus aureus, 52 strains of clinically isolated MRSA
Method: A test on the antibacterial potency against clinically isolated MRSA was conducted in the following way.
52 strains of clinically isolated MRSA were used, and MIC was determined for each of the strains according to the standard method of the Japan Chemotherapical Society as in Test Example 1. The minimum growth inhibitory concentration which inhibited growth of 50% of the strains tested was expressed as MIC50 (µg/ml), and the minimum growth inhibitory concentration which inhibited growth of 90% of the strains was expressed as MIC90 (µg/ml).
In this test, FMOX (flomoxef), IPM/CS (imipenem/cilastatin), CMZ (cefmetazole), MINO (minocycline) and DMPPC (methicillin) were used as control agents.

[1] = test system: Staphylococcus aureus 209P JC-1; assay: MIC against standard strains (Test Example 1); assay type: cell-based; settings: Muller-Hinton agar, 37°C overnight
Method: (§2) By using each test strain cultured overnight at 37°C in a Muller-Hinton broth, there was prepared a bacterial solution with a bacterial cell population of 1 x 10^6 CFU/mi of the same bouillon. The bacterial solution was inoculated into the Muller-Hinton agar media each containing respectively one test agent and, after overnight incubation at 37°C, the minimum concentration that inhibited growth of the bacteria was determined and shown as MIC also in Table 1.
(§3) Staphylococcus aureus 167 and Staphylococcus aureus 195 used in the test were MRSA. CTM (cefotiam) and FMOX (flomoxef) were used as control agents.

[2] = test system: Escherichia coli CSH2 (RE45); assay: MIC against standard strains (Test Example 1); assay type: cell-based
Method: as §2, §3

[3] = test system: Enterobacter cloacae ATCC 13407; assay: MIC against standard strains (Test Example 1); assay type: cell-based; settings: ATCC13407, Muller-Hinton agar, 37°C overnight
Method: as §2, §3

[4] = test system: Staphylococcus aureus 195; assay: MIC against standard strains (Test Example 1); assay type: cell-based; settings: Staphylococcus aureus 195 (MRSA); Muller-Hinton agar, 37°C overnight
Method: as §2, §3

Proteus vulgalis OX-19 = assay: MIC against standard strains (Test Example 1); assay type: cell-based; settings: Muller-Hinton agar, 37°C overnight
Method: as §2, §3

[5] = test system: Serratia marcescens IAM 1184; assay: MIC against standard strains (Test Example 1); assay type: cell-based; settings: IAM1184, Muller-Hinton agar, 37°C overnight
Method: as §2, §3

[6] = test system: Staphylococcus aureus Smith; assay: MIC against standard strains (Test Example 1); assay type: cell-based; settings: Muller-Hinton agar, 37°C overnight
Method: as §2, §3

[7] = test system: Escherichia coli CSH2 (RK1); assay: MIC against standard strains (Test Example 1); assay type: cell-based
Method: as §2, §3

[8] = test system: Klebsiella pneumoniae IFO 3317; assay: MIC against standard strains (Test Example 1); assay type: cell-based; settings: IFO3317, Muller-Hinton agar, 37°C overnight
Method: as §2, §3

[9] = test system: Escherichia coli NIHJ JC-2; assay: MIC against standard strains (Test Example 1); assay type: cell-based; settings: NIHJJC2, Muller-Hinton agar, 37°C overnight
Method: as §2, §3

[10] = test system: Staphylococcus aureus 167; assay: MIC against standard strains (Test Example 1); assay type: cell-based; settings: Staphylococcus aureus 167 (MRSA); Muller-Hinton agar, 37°C overnight
Method: as §2, §3

[11] = test system: Proteus mirabilis IFO 3849; assay: MIC against standard strains (Test Example 1); assay type: cell-based; settings: IFO3849, Muller-Hinton agar, 37°C overnight
Method: as §2, §3

[12] = test system: Psuedomonas aeruginosa IFO 3445; assay: MIC against standard strains (Test Example 1); assay type: cell-based; settings: Muller-Hinton agar, 37°C overnight
Method: as §2, §3

[13] = test system: Citrobacter freundii ATCC 8090; assay: MIC against standard strains (Test Example 1); assay type: cell-based; settings: ATCC8090, Muller-Hinton agar, 37°C overnight
Method: as §2, §3

[14] = test system: Staphylococcus epidermidis IAM 1296; assay: MIC against standard strains (Test Example 1); assay type: cell-based; settings: IAM1296, Muller-Hinton agar, 37°C overnight
Method: as §2, §3

[15] = test system: Klebsiella pneumoniae No. 42; assay: MIC against standard strains (Test Example 1); assay type: cell-based; settings: Muller-Hinton agar, 37°C overnight
Method: as §2, §3

[16] = test system: Bacillus subtilis ATCC 6633; assay: MIC against standard strains (Test Example 1); assay type: cell-based; settings: ATCC6633, Muller-Hinton agar, 37°C overnight
Method: as §2, §3

[17] = test system: Micrococcus luteus ATCC 9341; assay: MIC against standard strains (Test Example 1); assay type: cell-based; settings: ATCC9341, Muller-Hinton agar, 37°C overnight
Method: as §2, §3

[18] = test system: Pseudomonas aeruginosa NCTC 10490; assay: MIC against standard strains (Test Example 1); assay type: cell-based; settings: NCTC10490, Muller-Hinton agar, 37°C overnight
Method: as §2, §3

[19] = test system: Morganella morganii IFO 3848; assay: MIC against standard strains (Test Example 1); assay type: cell-based; settings: IFO3848, Muller-Hinton agar, 37°C overnight
Method: as §2, §3

Question: `CO[C@@]1(NC(=O)CSC(F)F)C(=O)N2C(C(=O)O)=C(CSc3nnnn3CCO)CO[C@@H]21` [FMOX, flomoxef, reference compound] was tested. Which MIC (E. coli NIHJ JC-2) did it give?
Answer: The MIC was 0.05 µg/mL (≈ 0.101 µM).

Question: What about the MIC (S. aureus 167) of the same compound?
Answer: Its MIC is 50 µg/mL (≈ 101 µM).

Question: And the MIC (S. marcescens IAM1184)?
Answer: The MIC was 0.2 µg/mL (≈ 0.403 µM).

Question: What about the MIC (S. aureus Smith) of the same compound?
Answer: Its MIC is 0.39 µg/mL (≈ 0.786 µM).

Question: What about the MIC (M. luteus ATCC 9341) of the same compound?
Answer: Its MIC is 0.05 µg/mL (≈ 0.101 µM).

Question: What about the MIC (C. freundii ATCC8090) of the same compound?
Answer: Its MIC is 0.39 µg/mL (≈ 0.786 µM).

Question: What about the MIC (E. coli CSH2 (RK1)) of the same compound?
Answer: The MIC was 0.05 µg/mL (≈ 0.101 µM).

Question: What about the MIC (A. calcoaceticos T59) of the same compound?
Answer: Its MIC is 50 µg/mL (≈ 101 µM).

Question: And the MIC (S. aureus 209p JC-1)?
Answer: Its MIC is 0.39 µg/mL (≈ 0.786 µM).

Question: And the MIC50 (clinically isolated MRSA; concentration inhibiting growth of 50% of the strains (Test Example 2))?
Answer: The MIC50 was 8.16 µg/mL (≈ 16.4 µM).

Question: What about the MIC90 (clinically isolated MRSA; concentration inhibiting growth of 90% of the strains (Test Example 2)) of the same compound?
Answer: Its MIC90 is 40.2 µg/mL (≈ 81 µM).

Question: And the MIC [1]?
Answer: The MIC was 0.39 µg/mL (≈ 0.786 µM).

Question: And the MIC [2]?
Answer: Its MIC is 0.1 µg/mL (≈ 0.201 µM).

Question: What about the MIC [3] of the same compound?
Answer: Its MIC is 25 µg/mL (≈ 50.4 µM).

Question: And the MIC [4]?
Answer: The MIC was 6.25 µg/mL (≈ 12.6 µM).

Question: And the MIC (Proteus vulgalis OX-19)?
Answer: Its MIC is 0.39 µg/mL (≈ 0.786 µM).

Question: What about the MIC [5] of the same compound?
Answer: The MIC was 0.2 µg/mL (≈ 0.403 µM).

Question: And the MIC [6]?
Answer: The MIC was 0.39 µg/mL (≈ 0.786 µM).

Question: And the MIC [7]?
Answer: Its MIC is 0.05 µg/mL (≈ 0.101 µM).

Question: What about the MIC [8] of the same compound?
Answer: The MIC was 0.05 µg/mL (≈ 0.101 µM).

Question: What about the MIC [9] of the same compound?
Answer: Its MIC is 0.05 µg/mL (≈ 0.101 µM).

Question: And the MIC [10]?
Answer: Its MIC is 100 µg/mL (≈ 201 µM).

Question: What about the MIC [11] of the same compound?
Answer: Its MIC is 0.2 µg/mL (≈ 0.403 µM).

Question: What about the MIC [12] of the same compound?
Answer: The MIC was greater than 100 µg/mL.

Question: And the MIC [13]?
Answer: Its MIC is 0.39 µg/mL (≈ 0.786 µM).

Question: What about the MIC [14] of the same compound?
Answer: Its MIC is 0.2 µg/mL (≈ 0.403 µM).

Question: And the MIC [15]?
Answer: The MIC was 0.1 µg/mL (≈ 0.201 µM).

Question: And the MIC [16]?
Answer: Its MIC is 0.2 µg/mL (≈ 0.403 µM).

Question: And the MIC [17]?
Answer: The MIC was 0.2 µg/mL (≈ 0.403 µM).

Question: What about the MIC [18] of the same compound?
Answer: The MIC was greater than 100 µg/mL.

Question: What about the MIC [19] of the same compound?
Answer: The MIC was 0.39 µg/mL (≈ 0.786 µM).
